Patent US12098216B2, “Modulators of programmed death-ligand-1 and/or programmed death-ligand-2” (Southern Research Institute, priority 2020, dated 2024)
Square brackets hold non-standard residues; d marks the D form. Peptide text beside a SMILES is read from it. * marks the point of attachment. dPhe(4-CH2NH2) = NCc1ccc(C[C@@H](N)C(=O)O)cc1; dOrn = NCCC[C@@H](N)C(=O)O; Orn = NCCC[C@H](N)C(=O)O; Ac5c = NC1(C(=O)O)CCCC1; PhAc = O=C(Cc1ccccc1)*; Ac3c = NC1(C(=O)O)CC1; Aib = CC(C)(N)C(=O)O

Tests used:
[1] = system: PDL-1 and/or PDL-2 signaling; test: Luciferase assay of dipeptides, Table 1; format: cell-based
PD-1 = test: Binding affinity (KD) of dipeptides, Table 1

| EC50 [1] [µM] | EC50 (μM) Luciferase [1] | KD (PD-1) | Compound |
| --- | --- | --- | --- |
| 0.59 | – | – | Cc1c[nH]c(=O)c(NC(=O)[C@@H](CCCN)NC(=O)Cc2ccc(F)cc2)c1 [Compound 35] |
| 0.06 | – | – | CC(C)(NC(=O)[C@@H](CCCN)NC(=O)Cc1c(F)cc(F)cc1F)C(N)=O [Compound 33] |
| 10.2 | – | – | CC(C)(NC(=O)[C@@H](CCCN)NC(=O)Cc1ccc(F)cc1Cl)C(N)=O [Compound 27] |
| 18 | – | – | CC(C)(NC(=O)[C@@H](CCCN)NC(=O)Cc1ccccc1)C(N)=O [Compound 1, (R)-5-amino-N-(1-amino-2-methyl-1-oxopropan-2-yl)-2-(2-phenylacetamido)pentanamide] (PhAc-[dOrn]-[Aib]-NH2) |
| 0.11 | – | – | NCCC[C@@H](NC(=O)Cc1ccccc1)C(=O)NC1(C(N)=O)CC1 [Compound 14] (PhAc-[dOrn]-[Ac3c]-NH2) |
| 19.2 | – | – | CC(C)(NC(=O)[C@@H](CCCN)NC(=O)Cc1nc2ccccc2o1)C(N)=O [Compound 38] |
| – | Inactive | – | Cc1ccc(CC(=O)N[C@H](CCCN)C(=O)NC(C)(C)C(N)=O)cc1 [Compound 10] |
| 12.1 | – | – | CC(C)(NC(=O)[C@H](CCCN)NC(=O)Cc1ccc(C(F)(F)F)cc1)C(N)=O [Compound 42] |
| 3.79 | – | – | CC(C)(NC(=O)[C@@H](CCCN)NC(=O)C(C)(C)c1ccc(F)cc1)C(N)=O [Compound 26] |
| – | Inactive | – | CC(C)(NC(=O)[C@@H](CCCN)NC(=O)C(C)(C)c1ccccc1)C(N)=O [Compound 12] |
| 0.07 | – | – | CC(C)(NC(=O)[C@@H](CCCN)NC(=O)Cc1nc2ccccc2s1)C(N)=O [Compound 40] |
| 0.01 | – | – | CC(C)(NC(=O)[C@@H](CCCN)NC(=O)Cc1ccc(C(F)(F)F)cc1)C(N)=O [Compound 3] |
| 2.05 | – | – | CC(C)(NC(=O)[C@@H](CCCN)NC(=O)C1(c2ccccc2)CC1)C(N)=O [Compound 22] |
| 7.9 | – | – | CC(C)(NC(=O)[C@H](CCCN)NC(=O)Cc1ccccc1)C(N)=O [Compound 2] (PhAc-[Orn]-[Aib]-NH2) |
| 28.3 | – | No Binding | CC(C)(NC(=O)[C@@H](CCCN)NC(=O)Cc1cc(F)c(F)c(F)c1)C(N)=O [Compound 32] |
| 17.7 | – | No Binding | CC(C)(NC(=O)[C@@H](Cc1ccc(CN)cc1)NC(=O)Cc1ccccc1)C(N)=O [Compound 23] (PhAc-[dPhe(4-CH2NH2)]-[Aib]-NH2) |
| 5.03 | – | – | CC(C)(NC(=O)[C@@H](CCCN)NC(=O)C1(c2ccc(F)cc2)CC1)C(N)=O [Compound 25] |
| 1.69 | – | No Binding | Cc1c[nH]c(=O)c(NC(=O)[C@@H](CCCN)NC(=O)Cc2ccccc2)c1 [Compound 36] |

| EC50 [1] [µM] | EC50 (μM) Luciferase [1] | KD (PD-1) | Compound |
| --- | --- | --- | --- |
| 0.09 | – | – | CC(C)(NC(=O)[C@@H](CCCN)NC(=O)Cc1ccc(OC(F)(F)F)cc1)C(N)=O [Compound 6] |
| 3.48 | – | – | CC(C)(NC(=O)[C@@H](CCCN)NC(=O)Cc1ccncc1)C(N)=O [Compound 34] |
| 2.58 | – | – | CC(C)(NC(=O)[C@@H](CCCN)NC(=O)Cc1ccc(F)cc1F)C(N)=O [Compound 29] |
| 3.32 | – | – | NCCC[C@@H](NC(=O)Cc1ccc(F)cc1)C(=O)NC1(C(N)=O)CC1 [Compound 15] |
| 0.714 | – | – | CC(C)(NC(=O)[C@@H](Cc1ccc(CN)cc1)NC(=O)Cc1ccc(F)cc1)C(N)=O [Compound 24] |
| 2 | – | – | CC(C)(NC(=O)[C@@H](CCCN)NC(=O)Cc1ccc(F)c(F)c1)C(N)=O [Compound 28] |
| 0.28 | – | – | NCCC[C@@H](NC(=O)Cc1ccccc1)C(=O)NC1(C(N)=O)CCCC1 [Compound 7] (PhAc-[dOrn]-[Ac5c]-NH2) |
| 10.3 | – | – | CCCC[C@@H](NC(=O)Cc1ccc(F)cc1)C(=O)NC(C)(C)C(N)=O [Compound 39] |
| 0.596 | – | – | CC(C)(NC(=O)[C@@H](CCCN)NC(=O)Cc1c(F)cccc1F)C(N)=O [Compound 31] |
| 0.47 | – | – | CC(C)(NC(=O)[C@@H](CCCN)NC(=O)Cc1ccc(F)cc1)C(N)=O [Compound 4] |
| 0.32 | – | – | COc1ccc(CC(=O)N[C@H](CCCN)C(=O)NC(C)(C)C(N)=O)cc1 [Compound 5] |
| 1.37 | – | – | CC(C)(NC(=O)[C@@H](CCCCN)NC(=O)Cc1ccccc1)C(N)=O [Compound 8] (PhAc-[dK]-[Aib]-NH2) |
| 23.8 | – | – | CN(C)CCC[C@@H](NC(=O)Cc1ccc(F)cc1)C(=O)NC(C)(C)C(N)=O [Compound 37] |
| 0.05 | – | – | CC(C)(NC(=O)[C@@H](CCCN)NC(=O)Cc1ccccc1F)C(N)=O [Compound 9] |
| 10.3 | – | No Binding | CC(C)(NC(=O)[C@@H](CCCN)NC(=O)Cc1ccc(Cl)cc1)C(N)=O [Compound 17] |
| 1.28 | – | – | CC(C)(NC(=O)[C@@H](CCCN)NC(=O)Cc1cccc(F)c1)C(N)=O [Compound 11] |
| 2.1 | – | – | CC(C)(NC(=O)[C@@H](CCCN)NC(=O)Cc1cc(F)cc(F)c1)C(N)=O [Compound 30] |

| Compound | EC50 [1] [µM] | EC50 (μM) Luciferase [1] | KD (PD-1) |
| --- | --- | --- | --- |
| Cn1cc(C(=O)N[C@H](CCCN)C(=O)NC(C)(C)C(N)=O)c2ccccc21 [Compound 13] | 1.28 | – | – |
